Laboratory results taken from patent US11396531B2, “Antimicrobial peptides comprising epsilon lysine residues” (priority 2016, dated 2022).
Converted amounts (≈) assume the structure as drawn.

Columns and labels:
[1] = test system: B. cereus ATCC 11778; settings: B. cereus ATCC 11778, Table 5
Description: (§1) MIC of cationic polymers and polypeptide were tested in accordance with the Clinical and Laboratory Standards Institute (CLSI) guidelines against a panel of antibiotic-susceptible/-resistant bacteria, yeasts and fungal strains. Bacterial and yeast strains were cultured on tryptic soy agar (TSA) and Sabaroud dextrose agar (SDA) plates (Neogen Corporation, MI, USA) overnight respectively. Inocula in Mueller-Hinton broth (MHB) for bacteria and SD broth for C. albicans (Beckton Dickinson, MD, USA) were prepared at 0.5 McFarland. The suspensions were then diluted to a final concentration of 10^5 CFU/ml in a 96-well microtitre plate (SPL Life Sciences Co., Ltd, Korea). […] The antimicrobial activities were compared with topical antiseptic agents, BAK and CHX. A similar protocol was used to determine the MIC of εPL against antibiotic-resistant pathogens. MIC of the polymers and polypeptides against Fusarium strains was determined in full strength RPMI-1640 buffer. Fungal spores were recovered from a 5-day old culture on a potato dextrose agar and diluted to a concentration of 10^5 spores/ml in 0.9% saline solution. A further 50-fold dilution was done in RPMI-1640 buffer and 100 μl of the inoculum was added to 96 well plates containing an equal volume of test peptides at 2-fold serial dilutions. 200 μl of inoculum without any additives and buffer alone served as positive and negative controls, respectively. The plate was then incubated at 30° C. for 48 h. The absorbance value was measured at 600 nm as before and the lowest concentration of the peptide which inhibited 90% growth was reported. All MIC determinations were performed in duplicates.
(§2) MICs of polymers/antibiotics were determined using the microdilution method in 96 well microtitre plates (SPL Life Sciences Co., Ltd, Korea), following the guidelines of Clinical and Laboratory Standards Institute (CLSI) document M100-S18. Briefly, polymers (1-512 μg/ml) or antibiotics were dissolved in appropriate media (Mueller Hinton broth, MHB for bacteria; Sabaroud's Dextrose (SD) broth for yeasts and RPMI buffer for Fusarium strains) and 100 μl of this was then mixed with an equal volume of microbial inoculum (OD600=˜0.08) in the same media and shaken in a closed incubator.

[2] = test system: C. albicans
Description: as §1, §2

[3] = test system: C. parapsilosis; settings: C. parpsilosis (n = 9), Table 5
Description: as §1, §2

[4] = test system: C. tropicalis; settings: C. tropicalis (n = 9), Table 5
Description: as §1, §2

[5] = test system: Vancomycin-resistant Enterococcus (VRE); settings: VRE (n = 21 strains), Table 5
Description: as §1, §2

[6] = test system: primary human dermal fibroblasts (HDFs); assay: MTS cytotoxicity assay
Description: MTS ((3-(4,5-dimethylthiazol-2-yl)-5-(3-carboxymethoxyphenyl)-2-(4-sulfophenyl)-2H-tetrazolium)) assay and high content analysis (HCA) were performed to elucidate the effect of various polymers on metabolic activity and morphological parameters of cultured human dermal fibroblasts (hDF), respectively as described previously. The antineoplastic agent, nocodazole (5 μg/ml), served as the […] control whereas cells treated with PBS served as positive control. The average values from three independent triplicate experiments are reported. Cells were cultured in 96-well plates and scanned (16 randomly selected fields/well) using an automated microscope IN Cell Analyzer 2200 (GE Healthcare). The multi-parametric cytotoxicity bio-application module of the IN Cell Investigator software (GE Healthcare) was used in quantitative estimations and morphotypic analysis of acquired images, which were automatically converted into color-coded heatmaps using Spotrfire® software.
Human dermal fibroblast cells were seeded in 96-well plates (2×10^3 cells/well) and incubated for 24 h at 37° C. and 5% CO2. Cells were then treated with various concentrations of polymers or peptides (62.5 μg/ml-1 mg/ml. At the end of the treatment period (after 24 h), 20 or 50 μl of MTS tetrazolium solution was added into 96-well or 12-well plates and further incubated for 2 h at 37° C. Subsequently, the absorbance was measured at 490 nm using a microplate reader (Infinite M200 Pro, Tecan, Switzerland) and the relative cell viability was calculated. Each treatment was performed in two triplicates and reported.
The cytotoxicity of peptides and polymers were determined using CellTier 96® Aqueous One solution cell proliferation assay kit according to the manufacturer's instruction (Promega Corporation, Madison, Wis.). This assay evaluates mitochondrial function by measuring ability of viable cells to reduce MTS ((3-(4,5-dimethylthiazol-2-yl)-5-(3-carboxymethoxyphenyl)-2-(4-sulfophenyl)-2H-tetrazolium)) into a quantifiable […] formazan product. HDFs were seeded in 96-well plates (2×10^3 cells/well) and incubated for 24 h at 37° C. and 5% CO2. Cells were then treated with a concentrated stock solution of polymers (final concentration 62.5-2000 μg/ml in the well) or peptides (final concentration 4-1000 μg/ml in the well). After 24 h, 20 μl of MTS tetrazolium solution was added into 96-well well plates and further incubated for 2 h at 37° C. Subsequently, the absorbance was measured at 490 nm using a microplate reader (Infinite M200 Pro, Tecan, Switzerland) and the relative cell viability was calculated relative to untreated control (10 mM PBS, pH 7.0). Each treatment was performed in two triplicates and reported.

[7] = test system: VRE 1002; assay: SYTOX green (SG) uptake assay and bacterial viability; format: cell-based, Enterococcus
Description: To discern the pore-forming ability of modified peptide in comparison with melittin, the SYTOX green (SG) uptake assay was performed upon exposure of the peptides and their bactericidal properties were determined. […] Therefore the fluorescence intensity is taken to be proportional to the degree of cell membrane disruption caused by test peptides.

`CC[C@H](C)[C@H](NC(=O)CN)C(=O)NCC(=O)N[C@@H](C)C(=O)N[C@H](C(=O)N[C@@H](CC(C)C)C(=O)N[C@@H](CCCCN)C(=O)N[C@H](C(=O)N[C@@H](CC(C)C)C(=O)N[C@H](C(=O)N[C@H](C(=O)NCC(=O)N[C@@H](CC(C)C)C(=O)N1CCC[C@H]1C(=O)N[C@@H](C)C(=O)N[C@@H](CC(C)C)C(=O)N[C@H](C(=O)N[C@@H](CO)C(=O)N[C@@H](Cc1c[nH]c2ccccc12)C(=O)N[C@H](C(=O)N[C@@H](CCCCN)C(=O)N[C@@H](CCCNC(=N)N)C(=O)N[C@@H](CCCCN)C(=O)N[C@@H](CCCNC(=N)N)C(=O)N[C@@H](CCC(N)=O)C(=O)N[C@@H](CCC(N)=O)C(N)=O)[C@@H](C)CC)[C@@H](C)CC)[C@@H](C)O)[C@@H](C)O)C(C)C)C(C)C` [Melittin] was tested, and the MIC [1] was 8 µg/mL (≈ 2.81 µM), the MIC ([2]; C. albicans (n = 5), Table 5) was 2 to 4 µg/mL and the “MIC against C. albicans (n = 5)” value ([2]; Table 4, range over 5 strains) was 2 to 4 µg/mL. For the same compound, the MIC [3] was 16 to 64 µg/mL, the MIC [4] was 8 to 64 µg/mL and the MIC90 ([5]; 90% of strains susceptible) was “(MIC90 = 8)^2 μg/ml”. For the same compound, the MIC ([5]; range) was 0.5 to 8 µg/mL, the “Cytotoxicity (in μg/ml) for HDFs” value ([6]; Concentration at which complete cytotoxicity was observed in MTS and HCA) was 16 µg/mL and the “Cytotoxicity for primary human dermal fibroblasts” value ([6]; Table 5) was 16 µg/mL. The SG uptake ([7]; VRE 1002, at 1×MIC) was 79.2% and the SG uptake ([7]; VRE 1002, at 2×MIC) was 89.7%.
